Data: US12077555B2, “STAT degraders and uses thereof” (Kymera Therapeutics, Inc., priority 2019, dated 2024)

Target: STAT3 (Homo sapiens, UniProt P40763)
Assay: STAT3 HiBiT degradation assay in transfected A549 cells
Assay type: cell-based
Set-up: expressed in transfected cells; host or cells: A549
Settings: A549, 24 h; read-out: STAT3 HiBiT A549 degradation 24 h: Average external-Abs DC50
How it was run: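 Degradation read as HiBiT-tagged STAT3 luminescence (Nano-Glo lytic reagent, 10 min, room temperature) following 24 h compound treatment of transfected A549 cells at 3-fold, 10 points. Percent remaining signal computed against controls and fitted with a four-parameter logistic; DC50 reported as letter bins (A <0.01 to D >1.0 µM).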

STAT3, sequence (P40763 whole entry): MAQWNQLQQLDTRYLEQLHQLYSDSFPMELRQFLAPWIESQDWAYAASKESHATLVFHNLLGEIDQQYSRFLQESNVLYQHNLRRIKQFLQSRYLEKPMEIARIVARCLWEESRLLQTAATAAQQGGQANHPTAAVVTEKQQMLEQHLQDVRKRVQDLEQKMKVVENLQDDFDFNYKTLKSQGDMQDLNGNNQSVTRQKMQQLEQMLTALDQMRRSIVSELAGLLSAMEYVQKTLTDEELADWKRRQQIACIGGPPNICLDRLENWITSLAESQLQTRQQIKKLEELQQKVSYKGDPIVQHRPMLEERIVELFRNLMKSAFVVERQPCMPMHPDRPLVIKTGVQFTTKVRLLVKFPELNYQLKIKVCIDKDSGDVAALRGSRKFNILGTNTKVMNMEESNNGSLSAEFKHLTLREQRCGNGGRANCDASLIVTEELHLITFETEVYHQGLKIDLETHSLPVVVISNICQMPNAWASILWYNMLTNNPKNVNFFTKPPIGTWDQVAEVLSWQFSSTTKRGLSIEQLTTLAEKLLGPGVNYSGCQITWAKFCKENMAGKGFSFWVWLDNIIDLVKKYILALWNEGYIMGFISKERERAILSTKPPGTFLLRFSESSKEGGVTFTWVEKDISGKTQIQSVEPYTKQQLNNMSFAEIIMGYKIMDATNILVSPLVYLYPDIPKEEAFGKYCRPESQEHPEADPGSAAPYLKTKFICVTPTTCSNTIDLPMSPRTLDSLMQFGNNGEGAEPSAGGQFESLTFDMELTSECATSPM

First: Cn1c(=O)n(C2CCC(=O)NC2=O)c2ccc(C3CC(CCCC(=O)N4CC[C@H]5CC[C@@H](C(=O)N[C@@H](CCC(N)=O)C(=O)NC(c6ccccc6)c6ccccc6)N5C(=O)[C@@H](NC(=O)c5cc6cc(C(=O)P(=O)(O)O)ccc6[nH]5)C4)C3)cc21 (stereo partly drawn) [Compound I-228, 2-[[(5S,8S,10aR)-8-[[(1S)-3-carbamoyl-1-(diphenylmethylcarbamoyl)propyl]carbamoyl]-3-(4-[3-[1-(2,6-dioxopiperidin-3-yl)-3-methyl-2-oxo-1,3-benzodiazol-5-yl]cyclobutyl]butanoyl)-6-oxo-octahydropyrrolo[1,2-a][1,5]diazocin-5-yl]carbamoyl]-1H-indole-5-carbonylphosphonic acid]
Second: Cn1c(=O)n(C2CCC(=O)NC2=O)c2ccc(CC3CCC(CC(=O)N4CC[C@H]5CC[C@@H](C(=O)N[C@H](CCC(N)=O)C(=O)NCc6ccc(S(C)(=O)=O)cc6)N5C(=O)[C@@H](NC(=O)c5cc6cc(C(=O)P(=O)(O)O)ccc6[nH]5)C4)CC3)cc21 (stereo partly drawn) [Compound I-230, 2-[[(5S,8S,10aR)-8-[[(1R)-3-carbamoyl-1-[[(4-methanesulfonylphenyl)methyl]carbamoyl]propyl]carbamoyl]-6-oxo-3-[2-[(1S,4S)-4-[[1-(2,6-dioxopiperidin-3-yl)-3-methyl-2-oxo-1,3-benzodiazol-5-yl]methyl]cyclohexyl]acetyl]-octahydropyrrolo[1,2-a][1,5]diazocin-5-yl]carbamoyl]-1H-indole-5-carbonylphosphonic acid]
The DC50 of the first is lower: 100 to 1000 nM for the first, greater than 1000 nM for the second.

`Cn1c(=O)n(C2CCC(=O)NC2=O)c2ccc(CCCCCCc3cc4c5c(c3)C[C@@H](C(=O)N[C@@H](CCC(N)=O)C(=O)NC(c3ccccc3)c3ccccc3)N5C(=O)[C@@H](NC(=O)c3cc5cc(C(=O)P(=O)(O)O)ccc5[nH]3)CC4)cc21` (stereo partly drawn) [Compound I-229, 2-[[(2S,11S)-2-[[(1S)-3-carbamoyl-1-(diphenylmethylcarbamoyl)propyl]carbamoyl]-6-[6-[1-(2,6-dioxopiperidin-3-yl)-3-methyl-2-oxo-1,3-benzodiazol-5-yl]hexyl]-12-oxo-1-azatricyclo[6.4.1.0 [4,13]]-trideca-4(13),5,7-trien-11-yl]carbamoyl]-1H-indole-5-carbonylphosphonic acid] and `CC(C)c1ccc(CNC(=O)[C@H](CCC(N)=O)NC(=O)[C@@H]2Cc3cc(CCCCCCc4ccc5c(c4)n(C)c(=O)n5C4CCC(=O)NC4=O)cc4c3N2C(=O)[C@@H](NC(=O)c2cc3cc(C(=O)P(=O)(O)O)ccc3[nH]2)CC4)cc1` (stereo partly drawn) [Compound I-232, 2-[[(2S,11S)-2-[[(1S)-3-carbamoyl-1-[[(4-isopropylphenyl)methyl]carbamoyl]propyl]carbamoyl]-6-[6-[1-(2,6-dioxopiperidin-3-yl)-3-methyl-2-oxo-1,3-benzodiazol-5-yl]hexyl]-12-oxo-1-azatricyclo[6.4.1.0^[4,13]]trideca-4(13),5,7-trien-11-yl]carbamoyl]-1H-indole-5-carbonylphosphonic acid] fall in the same range of DC50: 10 to 100 nM for the first, 10 to 100 nM for the second.

First: CC(=O)N1CC[C@H]2CC[C@@H](C(=O)N[C@@H](CCC(N)=O)COc3cccc(CCCC(=O)N[C@H](C(=O)N4C[C@H](O)C[C@H]4C(=O)N[C@@H](C)c4ccc(-c5scnc5C)cc4)C(C)(C)C)c3F)N2C(=O)[C@@H](NC(=O)c2cc3cc(C(=O)P(=O)(O)O)ccc3[nH]2)C1 [Compound I-231, diammonium 2-[[(5S,8S,10aR)-3-acetyl-8-[[(2S)-4-carbamoyl-1-[2-fluoro-3-(3[[(2S)-1-[(2S,4R)-4-hydroxy-2-[[(1S)-1-[4-(4-methyl-1,3-thiazo1-5-yl)phenyl]ethyl]carbamoyl]pyrrolidin-1-yl]-3,3-dimethyl-1-oxobutan-2-yl]carbamoyl]propyl)phenoxy]butan-2-yl]carbamoyl]-6-oxo-octahydropyrrolo[1,2-a][1,5]diazocin-5-yl]carbamoyl]-1H-indole-5-carbonylphosphonate]
Second: Cc1cc(CCCC(=O)N[C@H](C(=O)N2C[C@H](O)C[C@H]2C(=O)N[C@@H](C)c2ccc(-c3scnc3C)cc2)C(C)(C)C)c(F)c(OC[C@H](CCC(N)=O)NC(=O)[C@@H]2Cc3cccc4c3N2C(=O)[C@@H](NC(=O)c2cc3cc(C(=O)P(=O)(O)O)ccc3[nH]2)CC4)c1 [Compound I-235, diammonium 2-[[(2S,11S)-2-[[(2S)-4-carbamoyl-1-[2-fluoro-3-(3-[[(2S)-1-[(2S,4R)-4-hydroxy-2-[[(1S)-1-[4-(4-methyl-1,3-thiazol-5-yl)phenyl]ethyl]carbamoyl]pyrrolidin-1-yl]-3,3-dimethyl-1-oxobutan-2-yl]carbamoyl]propyl)-5-methyl-phenoxy]butan-2-yl]carbamoyl]-12-oxo-1-azatricyclo[6.4.1.0^[4,13]]trideca-4(13),5,7-trien-11-yl]carbamoyl]-1H-indole-5-carbonylphosphonate]
The DC50 of the first is lower: 10 to 100 nM for the first, greater than 1000 nM for the second.

First: Cc1ncsc1-c1ccc([C@H](C)NC(=O)[C@@H]2C[C@@H](O)CN2C(=O)[C@@H](NC(=O)CCCCc2ccc(CCC[C@H](CCC(N)=O)NC(=O)[C@@H]3Cc4cccc5c4N3C(=O)[C@@H](NC(=O)c3cc4cc(C(=O)P(=O)(O)O)ccc4[nH]3)CC5)cc2)C(C)(C)C)cc1 [Compound I-237, diammonium 2-[[(2S,11S)-2-[[(3R)-1-carbamoyl-6-[4-(4-[[(2S)-1-[(2S,4R)-4-hydroxy-2-[[(1S)-1-[4-(4-methyl-1,3-thiazol-5-yl)phenyl]ethyl]carbamoyl]pyrrolidin-1-yl]-3,3-dimethyl-1-oxobutan-2-yl]carbamoyl]butyl)phenyl]hexan-3-yl]carbamoyl]-12-oxo-1-azatricyclo[6.4.1.0^[4,13]]trideca-4(13),5,7-trien-11-yl]carbamoyl]-1H-indole-5-carbonylphosphonate]
Second: Cc1ncsc1-c1ccc([C@H](C)NC(=O)[C@@H]2C[C@@H](O)CN2C(=O)[C@@H](NC(=O)CCCCCc2ccc([C@H](CCC(N)=O)NC(=O)[C@@H]3Cc4cccc5c4N3C(=O)[C@@H](NC(=O)c3cc4cc(C(=O)P(=O)(O)O)ccc4[nH]3)CC5)nc2)C(C)(C)C)cc1 [Compound I-238]
The DC50 of the first is lower: 10 to 100 nM for the first, 100 to 1000 nM for the second.

First: Cc1ncsc1-c1ccc([C@H](C)NC(=O)[C@@H]2C[C@@H](O)CN2C(=O)[C@@H](NC(=O)CCCCc2cccc(OC[C@H](CCC(N)=O)NC(=O)[C@@H]3CCCN3C(=O)[C@H](CC(C)C)NC(=O)c3cc4cc(C(=O)P(=O)(O)O)ccc4[nH]3)c2Cl)C(C)(C)C)cc1 [Compound I-239, diammonium 2-[[(2S)-1-[(2S)-2-[[(2S)-4-carbamoyl-1-[2-chloro-3-(4-[[(2S)-1-[(2S,4R)-4-hydroxy-2-[[(1S)-1-[4-(4-methyl-1,3-thiazol-5-yl)phenyl]ethyl]carbamoyl]pyrrolidin-1-yl]-3,3-dimethyl-1-oxobutan-2-yl]carbamoyl]butyl)phenoxy]butan-2-yl]carbamoyl]pyrrolidin-1-yl]-4-methyl-1-oxopentan-2-yl]carbamoyl]-1H-]
Second: Cc1ncsc1-c1ccc([C@H](C)NC(=O)[C@@H]2C[C@@H](O)CN2C(=O)[C@@H](NC(=O)CCCc2cccc(OC[C@H](CCC(N)=O)NC(=O)[C@@H]3CCCN3C(=O)[C@H](CC(C)C)NC(=O)c3cc4cc(C(=O)P(=O)(O)O)ccc4[nH]3)c2Cl)C(C)(C)C)cc1 [Compound I-240]
The DC50 of the first is lower: less than 10 nM for the first, 10 to 100 nM for the second.

With `Cc1ncsc1-c1ccc([C@H](C)NC(=O)[C@@H]2C[C@@H](O)CN2C(=O)[C@@H](NC(=O)CCCCc2cccc(OC[C@H](CCC(N)=O)NC(=O)[C@@H]3Cc4cccc5c4N3C(=O)[C@@H](NC(=O)c3cc4cc(C(=O)P(=O)(O)O)ccc4[nH]3)CC5)c2Cl)C(C)(C)C)cc1` [Compound I-243] the DC50 was less than 10 nM.

Same assay, conditions: read-out: STAT3 HiBiT A549 degradation 24 h: Average external-Abs DC50; A549, 24 h

First: Cn1c(=O)n([C@@H]2CCC(=O)NC2=O)c2ccc(C[C@H]3CC[C@@H](CC(=O)N4CC[C@H]5CC[C@@H](C(=O)N[C@@H](CCC(N)=O)C(=O)NC(c6ccccc6)c6ccccc6)N5C(=O)[C@@H](NC(=O)c5cc6cc(C(=O)P(=O)(O)O)ccc6[nH]5)C4)CC3)cc21 [Compound I-234, (2-(((5S,8S,10aR)-8-(((S)-5-amino-1-(benzhydrylamino)-1,5-dioxopentan-2-yl)carbamoyl)-3-(2-((1S,4R)-4-((1-((R)-2,6-dioxopiperidin-3-yl)-3-methyl-2-oxo-2,3-dihydro-1H-benzo[d]imidazol-5-yl)methyl)cyclohexyl)acetyl)-6-oxodecahydropyrrolo[1,2-a][1,5]diazocin-5-yl)carbamoyl)-1H-indole-5-carbonyl)phosphonic acid]
Second: CC(=O)N1CC[C@H]2CC[C@@H](C(=O)N[C@@H](CCC(N)=O)COc3cc(C)cc(CCCCC(=O)N[C@H](C(=O)N4C[C@H](O)C[C@H]4C(=O)N[C@@H](C)c4ccc(-c5scnc5C)cc4)C(C)(C)C)c3F)N2C(=O)[C@@H](NC(=O)c2cc3cc(C(=O)P(=O)(O)O)ccc3[nH]2)C1 [Compound I-236, diammonium 2-[[(5S,8S,10aR)-3-acetyl-8-[[(2S)-4-carbamoyl-1-[2-fluoro-3-(4-[[(2S)-1-[(2S,4R)-4-hydroxy-2-[[(1S)-1-[4-(4-methyl-1,3-thiazol-5-yl)phenyl]ethyl]carbamoyl]pyrrolidin-1-yl]-3,3-dimethyl-1-oxobutan-2-yl]carbamoyl]butyl)-5-methylphenoxy]butan-2-yl]carbamoyl]-6-oxo-octahydropyrrolo[1,2-a][1,5]diazocin-5-yl]carbamoyl]-1H-indole-5-carbonylphosphonate]
The DC50 of the first is lower: 10 to 100 nM for the first, 100 to 1000 nM for the second.
